Test results taken from ChEMBL document CHEMBL1201862, “PubChem BioAssay data set” (2004).
Structures can show the parent of a compound that is named as a salt.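 Dose response: 5 concentrations. Exposure: 48 h. Format: 96-well plates. Endpoint: linear interpolation; highest concentration if not reached. Abbreviation: GI50, concentration required for 50% inhibition of growth.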 Calls of active or inactive are those of the source. Cut-off read from the data, not from the text of the source: active = GI50 up to about 1.1 µM and inactive = higher.

What was measured:
Test in all cases: NCI tumour cell line growth inhibition, 48 h
[1] = test system: RPMI-8226
[2] = test system: DU-145
[3] = test system: SF-539
[4] = test system: KM12
[5] = test system: MCF7
[6] = test system: SF-268
[7] = test system: NCI-H23
[8] = test system: NCI-H226
[9] = test system: UACC-257
[10] = test system: ACHN
[11] = test system: HCT-15
[12] = test system: CAKI-1
[13] = test system: IGROV-1
[14] = test system: NCI/ADR-RES
[15] = test system: SF-295
[16] = test system: SK-MEL-5
[17] = test system: NCI-H522
[18] = test system: MDA-MB-435
[19] = test system: HCC 2998
[20] = test system: SW-620

SMILES	GI50 [1]	GI50 [2]	GI50 [3]	GI50 [4]	GI50 [5]	GI50 [6]	GI50 [7]	GI50 [8]	GI50 [9]	GI50 [10]	GI50 [11] [µM]	GI50 [12]	GI50 [13]	GI50 [14]	GI50 [15]	GI50 [16]	GI50 [17]	GI50 [18]	GI50 [19]	GI50 [20]
CCOC(=O)c1c(NC(=O)c2cccs2)sc2c1CCC2	> 100 µM (inactive)	> 100 µM (inactive)	> 100 µM (inactive)	> 100 µM (inactive)	> 100 µM (inactive)	> 100 µM (inactive)	> 100 µM (inactive)	> 100 µM (inactive)	> 100 µM (inactive)	> 100 µM (inactive)	> 100	> 100 µM (inactive)	> 100 µM (inactive)	> 100 µM (inactive)	> 100 µM (inactive)	> 100 µM (inactive)				
O=[N+]([O-])C(C(Cl)=C(Cl)Cl)=C(N1CCOCC1)N1CCOCC1	> 100 µM (inactive)	> 100 µM (inactive)	> 100 µM (inactive)	> 100 µM (inactive)		> 100 µM (inactive)	> 100 µM (inactive)	> 100 µM (inactive)	> 100 µM (inactive)	> 100 µM (inactive)	> 100	> 100 µM (inactive)	> 100 µM (inactive)		> 100 µM (inactive)	> 100 µM (inactive)	> 100 µM (inactive)	> 100 µM (inactive)	> 100 µM (inactive)	
C[C@H](OCc1ccccc1)C(=O)N1CCS(=O)(=O)N2CCC[C@H]2C1=O	> 100 µM (inactive)		> 100 µM (inactive)	> 100 µM (inactive)		> 100 µM (inactive)	> 100 µM (inactive)	> 100 µM (inactive)	> 100 µM (inactive)	> 100 µM (inactive)	> 100	> 100 µM (inactive)	> 100 µM (inactive)		> 100 µM (inactive)	> 100 µM (inactive)	> 100 µM (inactive)		> 100 µM (inactive)	> 100 µM (inactive)
O=[N+]([O-])/C=C/c1ccc(Cl)cc1Cl	2.44 µM (inactive)		17.1 µM (inactive)	14.7 µM (inactive)		21.3 µM (inactive)	19.2 µM (inactive)	17.6 µM (inactive)	13.4 µM (inactive)	16.8 µM (inactive)	15	16.3 µM (inactive)	14.8 µM (inactive)		17 µM (inactive)	15.6 µM (inactive)	14.6 µM (inactive)		15.5 µM (inactive)	12.1 µM (inactive)
O=C(O)C(C(C(=O)O)P(=O)(O)O)P(=O)(O)O (stereo not drawn)	> 100 µM (inactive)	> 100 µM (inactive)	> 100 µM (inactive)	> 100 µM (inactive)	> 100 µM (inactive)	> 100 µM (inactive)		> 100 µM (inactive)		> 100 µM (inactive)	> 100		> 100 µM (inactive)			> 100 µM (inactive)		> 100 µM (inactive)	> 100 µM (inactive)	> 100 µM (inactive)
CN(C)c1cccc2c(S(=O)(=O)NCCCNCCN)cccc12		> 100 µM (inactive)	21.3 µM (inactive)	67 µM (inactive)		65.6 µM (inactive)	82.4 µM (inactive)	64.6 µM (inactive)	> 100 µM (inactive)	> 100 µM (inactive)	> 100	> 100 µM (inactive)	67.9 µM (inactive)	> 100 µM (inactive)	55.2 µM (inactive)	20.8 µM (inactive)	48.1 µM (inactive)	27.4 µM (inactive)	24 µM (inactive)	55.2 µM (inactive)
O=C1[C@@H]2C3SC(c4ccccc43)[C@@H]2C(=O)N1c1ccccc1	> 100 µM (inactive)		> 75 µM (inactive)	> 100 µM (inactive)		> 95.1 µM (inactive)	> 100 µM (inactive)	> 100 µM (inactive)	> 100 µM (inactive)	> 100 µM (inactive)	> 100	> 100 µM (inactive)	> 100 µM (inactive)		> 88.9 µM (inactive)	> 100 µM (inactive)	> 100 µM (inactive)		> 100 µM (inactive)	> 100 µM (inactive)
COc1ccc(/C=N/N=C(\N)NO)cc1OC	> 100 µM (inactive)		26.3 µM (inactive)	52.7 µM (inactive)		20.4 µM (inactive)	> 100 µM (inactive)	28.1 µM (inactive)	90.4 µM (inactive)	25.6 µM (inactive)	75.2	29.5 µM (inactive)	33.9 µM (inactive)		46.9 µM (inactive)	15.2 µM (inactive)	26.3 µM (inactive)		> 100 µM (inactive)	65.2 µM (inactive)
CCC12CCCN(Cc3ccccc3)C1c1c(n(C)c3ccccc13)C(C(=O)OC)C2 (stereo not drawn)	82.4 µM (inactive)		126 µM (inactive)	85.3 µM (inactive)		175 µM (inactive)	77.1 µM (inactive)	66.2 µM (inactive)	66.4 µM (inactive)	182 µM (inactive)	70.3	205 µM (inactive)	146 µM (inactive)		75.7 µM (inactive)	43.8 µM (inactive)	53.2 µM (inactive)		164 µM (inactive)	115 µM (inactive)
COc1cc2c(c(OC)c1OC)-c1ccc(SC)c(=O)cc1C(CC(=O)Oc1cccc(F)c1)C2 (stereo not drawn)	0.165 µM (active)		0.111 µM (active)	0.13 µM (active)		0.653 µM (active)	0.259 µM (active)	0.184 µM (active)	14.9 µM (inactive)	0.243 µM (active)	0.22	1.35 µM (inactive)	0.787 µM (active)		0.075 µM (active)	0.411 µM (active)	0.102 µM (active)		0.111 µM (active)	0.112 µM (active)
O=C1NC(c2ccccc2)(c2ccccc2)C(=O)N1CCCCCCN1C(=O)NC(c2ccccc2)(c2ccccc2)C1=O	> 100 µM (inactive)		18.6 µM (inactive)	> 100 µM (inactive)		21.5 µM (inactive)	18.2 µM (inactive)	> 100 µM (inactive)	26.2 µM (inactive)	33.3 µM (inactive)	> 100	48.5 µM (inactive)	74 µM (inactive)		13.2 µM (inactive)	19.9 µM (inactive)	11.9 µM (inactive)		> 100 µM (inactive)	69.3 µM (inactive)
COC(=O)/C=C(\C)CC/C=C(\C)CCC(O)C(C)(C)O (stereo not drawn)			18.7 µM (inactive)	13.9 µM (inactive)	37 µM (inactive)		29.2 µM (inactive)	28.8 µM (inactive)	36.4 µM (inactive)	25.6 µM (inactive)	23.3	20.4 µM (inactive)	25.8 µM (inactive)	18.7 µM (inactive)	23.1 µM (inactive)	16.6 µM (inactive)			16.8 µM (inactive)	22.7 µM (inactive)
COc1ccc(OC)c(CCc2ccccc2CC(=O)O)c1	> 100 µM (inactive)		> 100 µM (inactive)	> 100 µM (inactive)		> 100 µM (inactive)	> 100 µM (inactive)	> 100 µM (inactive)	> 100 µM (inactive)	> 100 µM (inactive)	> 100	> 100 µM (inactive)	> 100 µM (inactive)		> 100 µM (inactive)	> 100 µM (inactive)	> 100 µM (inactive)		> 100 µM (inactive)	> 100 µM (inactive)
CC1(C)OC([C@H](O)CO)C([C@H]2NCCS2)O1 (stereo partly drawn)	> 100 µM (inactive)	> 100 µM (inactive)		> 100 µM (inactive)		> 100 µM (inactive)	> 100 µM (inactive)	> 100 µM (inactive)	> 100 µM (inactive)	> 100 µM (inactive)	> 100	> 100 µM (inactive)	> 100 µM (inactive)	> 100 µM (inactive)	> 100 µM (inactive)	> 100 µM (inactive)	> 100 µM (inactive)	> 100 µM (inactive)	> 100 µM (inactive)	> 100 µM (inactive)
CNS(=O)(=O)NNS(=O)(=O)c1ccc2ccccc2c1	> 100 µM (inactive)		> 100 µM (inactive)	> 100 µM (inactive)		> 100 µM (inactive)	> 100 µM (inactive)	> 100 µM (inactive)	> 100 µM (inactive)	> 100 µM (inactive)	> 100	> 100 µM (inactive)	> 100 µM (inactive)		> 100 µM (inactive)	> 100 µM (inactive)	> 100 µM (inactive)		> 100 µM (inactive)	> 100 µM (inactive)
C#Cc1cccc(Nc2ncnc3cc(OCCOC)c(OCCOC)cc23)c1 [ERLOTINIB HYDROCHLORIDE]	55.3 µM (inactive)		15.4 µM (inactive)	18.2 µM (inactive)			41.7 µM (inactive)		> 100 µM (inactive)	0.109 µM (active)	4.76	< 0.01 µM (active)	0.0857 µM (active)	7.67 µM (inactive)	16.2 µM (inactive)	1.41 µM (inactive)		4.06 µM (inactive)		> 100 µM (inactive)
O=C1Cc2c([nH]c3ccc(Br)cc23)-c2ccccc2N1 [KENPAULLONE]	> 20.5 µM (inactive)	> 100 µM (inactive)	2.43 µM (inactive)	2.73 µM (inactive)		> 75.5 µM (inactive)	> 100 µM (inactive)	> 100 µM (inactive)	> 100 µM (inactive)	> 100 µM (inactive)	4.46		9.75 µM (inactive)	> 100 µM (inactive)	> 100 µM (inactive)	> 28.4 µM (inactive)	> 100 µM (inactive)	> 100 µM (inactive)	> 100 µM (inactive)	
